Measurements as given in patent US20230226005A1, “Methods of Treating, Ameliorating, Shortening Duration, and/or Reversing Symptoms and/or Complications of a Coronavirus Infection” (Yale University, priority 2020, published 2023).

What was measured:
SARS-CoV-2 = assay: Phase IIa double-blind placebo-controlled study, camostat mesylate 200 mg four times daily for seven days: viral load (log10) by COVID-19 RT-PCR of nasopharyngeal swab and saliva; type: in vivo; details: for viral load, Fitzmaurice mixed model, Common baseline: day 0; for viral load change Effect (camostat vs placebo), Fitzmaurice mixed model, visit 2 / viral load, Fitzmaurice mixed model, visit 2 / viral load, Fitzmaurice mixed model, visit 2 change: day 2; for viral load change Effect (camostat vs placebo), Fitzmaurice mixed model, visit 3(D4) / viral load, Fitzmaurice mixed model, visit 3(D4) / viral load, Fitzmaurice mixed model, visit 3(D4) change: day 4; for viral load change Effect (camostat vs placebo), Fitzmaurice mixed model, visit 4(D6) / viral load, Fitzmaurice mixed model, visit 4(D6) / viral load, Fitzmaurice mixed model, visit 4(D6) change: day 6; for viral load Camostat LSMean Change (SE) / viral load change Difference (SE) between treatment groups: ANCOVA linear mixed model, n = 57; for viral load change Difference (SE) between treatment groups: placebo minus camostat
SARS-CoV-1 = details: mice; reduced from 100%; concentration similar to clinically achievable concentration in humans; cited from earlier work
[1] = visit 3 (day 4), listed as Camostat

CN(C)C(=O)COC(=O)Cc1ccc(OC(=O)c2ccc(NC(=N)N)cc2)cc1 [camostat, 4-[[4-[(Aminoiminomethyl)amino]benzoyl]oxy]benzeneacetic acid 2-(dimethylamino)-2-oxoethyl ester]
viral load (log10) Mean (SARS-CoV-2; ORF1ab gene, visit 2 (day 2)): 4.71 log10
viral load (log10) Median (SARS-CoV-2; ORF1ab gene, visit 2 (day 2)): 4.20 log10
change in viral load from baseline, Mean (SARS-CoV-2; ORF1ab gene, visit 3 (day 4)): −2.14 log10
change in viral load from baseline, Median (SARS-CoV-2; ORF1ab gene, visit 3 (day 4)): −2.33 log10
viral load (log10) Mean (SARS-CoV-2; ORF1ab gene, visit 3 (day 4)): 4.10 log10
viral load (log10) Median (SARS-CoV-2; ORF1ab gene, visit 3 (day 4)): 4.41 log10
change in viral load from baseline, Mean (SARS-CoV-2; ORF1ab gene, visit 4 (day 6)): −3.39 log10
change in viral load from baseline, Median (SARS-CoV-2; ORF1ab gene, visit 4 (day 6)): −3.41 log10
viral load (log10) Mean (SARS-CoV-2; ORF1ab gene, visit 4 (day 6)): 2.42 log10
viral load (log10) Median (SARS-CoV-2; ORF1ab gene, visit 4 (day 6)): 2.47 log10
change in viral load from baseline, Mean (SARS-CoV-2; ORF1ab gene, visit 5 (day 14)): −5.19 log10
change in viral load from baseline, Median (SARS-CoV-2; ORF1ab gene, visit 5 (day 14)): −5.61 log10
viral load (log10) Mean (SARS-CoV-2; ORF1ab gene, visit 5 (day 14)): 1.04 log10
viral load (log10) Median (SARS-CoV-2; ORF1ab gene, visit 5 (day 14)): 0.00 log10
change in viral load from baseline, Mean (SARS-CoV-2; ORF1ab gene, visit 6 (day 28)): −6.15 log10
change in viral load from baseline, Median (SARS-CoV-2; ORF1ab gene, visit 6 (day 28)): −6.57 log10
viral load (log10) Mean (SARS-CoV-2; ORF1ab gene, visit 6 (day 28)): 0.05 log10
viral load (log10) Median (SARS-CoV-2; ORF1ab gene, visit 6 (day 28)): 0.00 log10
viral load, Fitzmaurice mixed model, Common baseline (SARS-CoV-2; ORF1ab): 6.3 (5.8, 6.8) log10
viral load change Effect (camostat vs placebo), Fitzmaurice mixed model, visit 2 (SARS-CoV-2; ORF1ab): 0.28 (−0.57, 1.13) log10
viral load, Fitzmaurice mixed model, visit 2 (SARS-CoV-2; ORF1ab): 5 (4.3, 5.8) log10
viral load, Fitzmaurice mixed model, visit 2 change (SARS-CoV-2; ORF1ab): −1.2 (−1.9, −0.6) log10
viral load change Effect (camostat vs placebo), Fitzmaurice mixed model, visit 3(D4) (SARS-CoV-2; ORF1ab): −0.46 (−1.3, 0.39) log10
viral load, Fitzmaurice mixed model, visit 3(D4) (SARS-CoV-2; ORF1ab): 4.2 (3.5, 4.9) log10
viral load, Fitzmaurice mixed model, visit 3(D4) change (SARS-CoV-2; ORF1ab): −2.1 (−2.7, −1.5) log10
viral load change Effect (camostat vs placebo), Fitzmaurice mixed model, visit 4(D6) (SARS-CoV-2; ORF1ab): −0.09 (−1.27, 1.08) log10
viral load, Fitzmaurice mixed model, visit 4(D6) (SARS-CoV-2; ORF1ab): 2.6 (1.8, 3.5) log10
viral load, Fitzmaurice mixed model, visit 4(D6) change (SARS-CoV-2; ORF1ab): −3.6 (−4.5, −2.7) log10
viral load, Fitzmaurice mixed model, Common baseline (SARS-CoV-2; S gene): 5 (4.1, 5.9) log10
viral load change Effect (camostat vs placebo), Fitzmaurice mixed model, visit 2 (SARS-CoV-2; S gene): 0.36 (−0.72, 1.43) log10
viral load, Fitzmaurice mixed model, visit 2 (SARS-CoV-2; S gene): 3.6 (2.6, 4.6) log10
viral load, Fitzmaurice mixed model, visit 2 change (SARS-CoV-2; S gene): −1.4 (−2.2, −0.5) log10
viral load change Effect (camostat vs placebo), Fitzmaurice mixed model, visit 3(D4) (SARS-CoV-2; S gene): −0.13 (−1.07, 0.8) log10
viral load, Fitzmaurice mixed model, visit 3(D4) (SARS-CoV-2; S gene): 2.7 (1.9, 3.5) log10
viral load, Fitzmaurice mixed model, visit 3(D4) change (SARS-CoV-2; S gene): −2.3 (−3.1, −1.5) log10
viral load change Effect (camostat vs placebo), Fitzmaurice mixed model, visit 4(D6) (SARS-CoV-2; S gene): 0.19 (−0.98, 1.36) log10
viral load, Fitzmaurice mixed model, visit 4(D6) (SARS-CoV-2; S gene): 1.7 (0.8, 2.6) log10
viral load, Fitzmaurice mixed model, visit 4(D6) change (SARS-CoV-2; S gene): −3.2 (−4.3, −2.2) log10
change in viral load from baseline, Mean (SARS-CoV-2; S gene, visit 1 (day 0)): 0.00 log10
change in viral load from baseline, Median (SARS-CoV-2; S gene, visit 1 (day 0)): 0.00 log10
viral load (log10) Mean (SARS-CoV-2; S gene, visit 1 (day 0)): 4.50 log10
viral load (log10) Median (SARS-CoV-2; S gene, visit 1 (day 0)): 5.02 log10
change in viral load from baseline, Mean (SARS-CoV-2; S gene, visit 2 (day 2)): −1.24 log10
change in viral load from baseline, Median (SARS-CoV-2; S gene, visit 2 (day 2)): −0.89 log10
viral load (log10) Mean (SARS-CoV-2; S gene, visit 2 (day 2)): 3.04 log10
viral load (log10) Median (SARS-CoV-2; S gene, visit 2 (day 2)): 3.22 log10
change in viral load from baseline, Mean (SARS-CoV-2; S gene, visit 3 (day 4)): −2.06 log10
change in viral load from baseline, Median (SARS-CoV-2; S gene, visit 3 (day 4)): −1.94 log10
viral load (log10) Mean (SARS-CoV-2; S gene, visit 3 (day 4)): 2.42 log10
viral load (log10) Median (SARS-CoV-2; S gene, visit 3 (day 4)): 1.01 log10
change in viral load from baseline, Mean (SARS-CoV-2; S gene, visit 4 (day 6)): −2.70 log10
change in viral load from baseline, Median (SARS-CoV-2; S gene, visit 4 (day 6)): −2.41 log10
viral load (log10) Mean (SARS-CoV-2; S gene, visit 4 (day 6)): 1.48 log10
viral load (log10) Median (SARS-CoV-2; S gene, visit 4 (day 6)): 0.00 log10
change in viral load from baseline, Mean (SARS-CoV-2; S gene, visit 5 (day 14)): −4.20 log10
change in viral load from baseline, Median (SARS-CoV-2; S gene, visit 5 (day 14)): −4.28 log10
viral load (log10) Mean (SARS-CoV-2; S gene, visit 5 (day 14)): 0.27 log10
viral load (log10) Median (SARS-CoV-2; S gene, visit 5 (day 14)): 0.00 log10
change in viral load from baseline, Mean (SARS-CoV-2; S gene, visit 6 (day 28)): −4.37 log10
change in viral load from baseline, Median (SARS-CoV-2; S gene, visit 6 (day 28)): −4.88 log10
viral load (log10) Mean (SARS-CoV-2; S gene, visit 6 (day 28)): 0.00 log10
viral load (log10) Median (SARS-CoV-2; S gene, visit 6 (day 28)): 0.00 log10
viral load Camostat LSMean Change (SE) (SARS-CoV-2; visit 2 (day 2)): −1.10 (0.30) log10
viral load change Difference (SE) between treatment groups (SARS-CoV-2; visit 2 (day 2)): −0.01 (0.42) log10
viral load Camostat LSMean Change (SE) (SARS-CoV-2; visit 3 (day 4)): −1.94 log10
viral load Camostat LSMean Change (SE) (SARS-CoV-2; [1]): −1.94 (0.32) log10
viral load change Difference (SE) between treatment groups (SARS-CoV-2; visit 3 (day 4)): −0.69 log10
viral load change Difference (SE) between treatment groups (SARS-CoV-2; [1]): −0.69 (0.45) log10
viral load Camostat LSMean Change (SE) (SARS-CoV-2; visit 4 (day 6)): −3.22 (0.46) log10
viral load change Difference (SE) between treatment groups (SARS-CoV-2; visit 4 (day 6)): −0.39 (0.63) log10
mortality following SARS-CoV-1 infection (SARS-CoV-1): 30-35%
